Source: patent publication US9909107B2, “Brassica AHAS genes and gene alleles that provide resistance to imidazolinone herbicides” (priority 2004, dated 2018)
Where “and” joins values, the source holds several entries; their conditions need not be identical. Equal entries are not always repeated.

Tests used:
[1] = tested on: AHAS enzyme in leaf discs of Susceptible check (B. juncea variety 'Arid'); test: AHAS activity assay of leaf discs, susceptible check; type: biochemical, Brassica juncea
Protocol: (§1) Leaf discs were removed from seedling leaves of J04E-0044 and subjected to an assay of AHAS activity, as described by Singh et al. (Anal. Biochem. 171: 173-179, 1988). The assay measures AHAS activity by estimating the amount of product, acetolactate, after conversion by decarboxylation in the presence of acid to acetoin. The assay compares the AHAS activity in two leaf discs. The control leaf disc was incubated in 10 mM phosphate buffer (pH 6.0) containing 50 mM pyruvate, 500 uM cyclopropane dicarboxylic acid (CPCA), 10% M&S salts and 0.5% alanine. The other leaf disc was in the same buffer in the presence of 2.5 uM imazamox, an imidazolinone herbicide. The herbicide normally binds to the AHAS enzyme and inhibits activity. The incubations were carried out at 22° C. for 16 hrs followed by measuring the absorbance at A530 nm. A completely herbicide susceptible plant will have an AHAS activity level near zero when exposed to an inhibitory herbicide, while a tolerant plant will have AHAS activity nearly equal to that of the control. A plant with a mutated AHAS gene in one genome but not the other will have intermediate AHAS activity in the present of enzyme inhibitor. The procedure was modified to include the addition of cydopropane dicarboxylic acid (CPCA), which prevents the further conversion of acetolactate to valine and leucine. In addition to an imidazolinone herbicide as an inhibitor, a sulfonylurea herbicide (chlorsulfuron) was also used on separate leaf discs to test for cross-tolerance in the same way except that 0.2 uM chlorsulfuron was used instead of 2.5 uM imazamox. In this table, the line PM1 is a B. napus variety with a mutation affecting the AHAS1 gene in the C genome only and PM2 is a B. napus variety with a mutation in the AHAS3 gene, located in the A genome. Susceptible check is a commercial B. juncea variety.

[2] = molecular target: T1, AHAS enzyme in leaf discs of PM1 (mutation affecting the AHAS1 gene in the C genome) (Brassica napus, UniProt P27818, S638N); test: AHAS activity assay of leaf discs, line PM1; type: biochemical; details: for tolerance provided by the mutation (in words): PM1 mutation
T1 construct: Relative AHAS activity of leaf discs exposed; from tissue; host or cells: leaf discs of B. napus line PM1
T1 sequence (P27818 83-655 S638N): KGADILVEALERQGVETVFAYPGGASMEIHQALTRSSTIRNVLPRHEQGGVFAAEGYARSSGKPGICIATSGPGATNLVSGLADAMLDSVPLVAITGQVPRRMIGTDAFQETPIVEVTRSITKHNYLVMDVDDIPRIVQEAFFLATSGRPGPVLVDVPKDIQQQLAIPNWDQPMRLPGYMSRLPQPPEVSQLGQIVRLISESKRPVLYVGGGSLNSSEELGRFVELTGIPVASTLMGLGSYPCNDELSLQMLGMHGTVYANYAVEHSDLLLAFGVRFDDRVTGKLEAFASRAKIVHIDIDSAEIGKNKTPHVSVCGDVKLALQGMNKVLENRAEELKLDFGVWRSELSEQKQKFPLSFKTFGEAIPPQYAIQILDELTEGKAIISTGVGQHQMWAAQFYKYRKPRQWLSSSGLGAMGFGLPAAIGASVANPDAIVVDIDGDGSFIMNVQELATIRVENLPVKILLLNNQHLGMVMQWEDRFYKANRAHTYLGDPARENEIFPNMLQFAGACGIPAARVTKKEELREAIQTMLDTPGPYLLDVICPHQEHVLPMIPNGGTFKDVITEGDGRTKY
Protocol: as §1

[3] = tested on: AHAS enzyme in leaf discs of J04E-0044 (BjAHAS-bR mutant allele); test: AHAS activity assay of leaf discs, line J04E-0044; type: biochemical, Brassica juncea; details: for tolerance provided by the mutation (in words): mutation in B. juncea variety J04E-0044
Protocol: as §1

[4] = molecular target: T2, AHAS enzyme in leaf discs of PM2 (mutation in the AHAS3 gene, A genome) (Brassica napus, UniProt P27819, W556L); test: AHAS activity assay of leaf discs, line PM2; type: biochemical; details: for tolerance provided by the mutation (in words): PM2 mutation in the A genome
T2 construct: Relative AHAS activity of leaf discs exposed; from tissue; host or cells: leaf discs of B. napus line PM2
T2 sequence (P27819 70-652 W556L): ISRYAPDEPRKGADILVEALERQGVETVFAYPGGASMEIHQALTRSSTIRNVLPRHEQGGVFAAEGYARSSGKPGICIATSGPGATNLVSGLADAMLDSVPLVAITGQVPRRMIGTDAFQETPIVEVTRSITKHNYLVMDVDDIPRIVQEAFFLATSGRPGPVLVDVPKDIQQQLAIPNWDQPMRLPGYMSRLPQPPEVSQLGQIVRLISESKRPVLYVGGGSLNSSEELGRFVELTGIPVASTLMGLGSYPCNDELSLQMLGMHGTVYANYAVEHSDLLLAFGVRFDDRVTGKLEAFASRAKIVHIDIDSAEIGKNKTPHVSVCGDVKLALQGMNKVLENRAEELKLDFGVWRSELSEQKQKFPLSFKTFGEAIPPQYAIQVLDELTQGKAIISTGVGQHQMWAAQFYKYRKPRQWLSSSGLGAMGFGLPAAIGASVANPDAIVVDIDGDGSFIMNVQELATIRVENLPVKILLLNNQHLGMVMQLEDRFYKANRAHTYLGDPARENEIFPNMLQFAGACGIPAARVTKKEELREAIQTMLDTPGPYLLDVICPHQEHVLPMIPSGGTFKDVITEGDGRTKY
Protocol: as §1

SMILES: COc1nc(C)nc(NC(=O)NS(=O)(=O)c2ccccc2Cl)n1 [chlorsulfuron]
- Relative AHAS activity with chlorsulfuron (0-1) ([1]; Susceptible check leaf disc, 0.2 uM chlorsulfuron vs control disc, 22° C., 16 hrs, scale 0-1): 0.029
- tolerance provided by the mutation (in words) [2]: no tolerance
- tolerance provided by the mutation (in words) [3]: little tolerance
- tolerance provided by the mutation (in words) [4]: tolerance

SMILES: COCc1cnc(C2=NC(C)(C(C)C)C(=O)N2)c(C(=O)O)c1 (stereo not shown) [imidazolinone, imazamox]
- AHAS activity in the presence of an imidazolinone herbicide relative to without the inhibitor ([1]; Arid (susceptible check)): less than 2%
- Relative AHAS activity with imidazolinone (0-1) ([1]; Susceptible check leaf disc, 2.5 uM imazamox vs control disc, 22° C., 16 hrs, scale 0-1): 0.018
- Relative AHAS activity with imidazolinone (0-1) ([2]; PM1 leaf disc, 2.5 uM imazamox vs control disc, 22° C., 16 hrs, scale 0-1, assays #1-3): 0.256 and 0.292 and 0.276
- tolerance provided by the mutation (in words) [2]: less tolerance
- relative AHAS activity ([3]; J04E-0044, imidazolinone as AHAS activity inhibitor (Table 1)): 70% and 79% and 91%
- Relative AHAS activity with imidazolinone (0-1) ([3]; J04E-0044 leaf disc, 2.5 uM imazamox vs control disc, 22° C., 16 hrs, scale 0-1, assays #1-3): 0.703 and 0.793 and 0.919
- tolerance provided by the mutation (in words) [3]: tolerance equal to that of PM2
- Relative AHAS activity with imidazolinone (0-1) ([4]; PM2 leaf disc, 2.5 uM imazamox vs control disc, 22° C., 16 hrs, scale 0-1, assays #1-2): 0.607 and 0.722
- tolerance provided by the mutation (in words) [4]: tolerance
